In patent US9834558B2, “Substituted bridged urea analogs as sirtuin modulators” (GLAXOSMITHKLINE LLC, priority 2013, dated 2017):
Structures can show the parent of a compound that is named as a salt.

Target: T1, SIRT1 (Homo sapiens, UniProt Q96EB6)
T1 sequence (Q96EB6 1-747): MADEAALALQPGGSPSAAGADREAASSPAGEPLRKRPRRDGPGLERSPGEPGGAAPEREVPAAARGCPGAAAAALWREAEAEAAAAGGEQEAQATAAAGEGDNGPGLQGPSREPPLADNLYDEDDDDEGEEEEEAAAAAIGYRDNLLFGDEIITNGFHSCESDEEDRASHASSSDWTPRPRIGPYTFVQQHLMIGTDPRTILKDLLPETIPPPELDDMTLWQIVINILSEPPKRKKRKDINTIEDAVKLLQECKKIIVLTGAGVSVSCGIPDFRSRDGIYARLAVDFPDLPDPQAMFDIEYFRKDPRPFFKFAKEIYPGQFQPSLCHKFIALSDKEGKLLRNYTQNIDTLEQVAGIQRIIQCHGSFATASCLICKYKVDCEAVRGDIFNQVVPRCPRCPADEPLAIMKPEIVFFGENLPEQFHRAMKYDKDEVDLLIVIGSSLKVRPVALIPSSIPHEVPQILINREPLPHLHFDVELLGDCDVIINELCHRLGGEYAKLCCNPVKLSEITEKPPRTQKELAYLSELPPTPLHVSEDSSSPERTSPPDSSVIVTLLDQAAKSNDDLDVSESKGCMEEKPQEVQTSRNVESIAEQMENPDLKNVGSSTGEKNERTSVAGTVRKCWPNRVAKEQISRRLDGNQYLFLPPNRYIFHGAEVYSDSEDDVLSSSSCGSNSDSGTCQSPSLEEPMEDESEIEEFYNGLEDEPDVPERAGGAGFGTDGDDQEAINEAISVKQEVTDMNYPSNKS
Test: Trp mass spectrometry assay of SIRT1 activation
Assay type: biochemical
Conditions: for TRP Activity (EC1.5) / Emax: Trp peptide assay; for TRP Activity (EC1.5): EC1.5 = concentration that results in 150% activation of SIRT1; for Emax: maximum activity relative to control (100%), read-out: TRP MAX RESP (percent maximum fold activation)
Method in brief: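 Activation read-out: mass-spec measurement of O-acetyl-ADP-ribose or deacetylated Trp peptide versus compound-free controls, giving EC1.5 and Percent Maximum Activation. Reactions ran 25 min at 25 °C, pH 7.5, with 120 μM βNAD+, 0.5 μM acetylated p53-derived peptide and 10 nM His-tagged SIRT1.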

[1] = concentration giving 150% activation of SIRT1, Trp peptide substrate
[2] = Trp mass spectrometry assay, EC1.5 = concentration of test compound that results in 150% activation of SIRT1
[3] = Trp mass spectrometry assay, concentration of test compound giving 150% activation of SIRT1

SMILES: Cc1ccc(-c2ccc3c(n2)N(C(=O)NC2CCOCC2)[C@H]2CCN3C2)cn1 [(9S)-5-(6-methylpyridin-3-yl)-N-(oxan-4-yl)-1,6,8-triazatricyclo[7.2.1.0^{2,7}]dodeca-2(7),3,5-triene-8-carboxamide]
- TRP Activity (EC1.5): C (C (EC1.5>25 μM))
- Emax: < 150%

SMILES: NCc1cccc(NC(=O)N2c3nc(-c4cccc(C(F)(F)F)c4)ccc3N3CCC[C@H]2C3)c1 [Example 757]
- Tryp AVG EC1.5 (μM) [1]: A (A (EC1.5<1 μM))

SMILES: O=C(Nc1cccc(-c2cnco2)n1)N1c2nc(-c3cccc(C(F)(F)F)c3)ccc2N2C[C@@H](O)[C@H]1C2 [Example 698]
- Tryp AVG EC1.5 (μM) [1]: A (A (EC1.5<1 μM))

SMILES: Cc1cc(-c2ccc3c(n2)N(C(=O)Nc2cnc(C(F)(F)F)cn2)[C@H]2CCN3C2)ccn1 [(9S)-5-(2-methylpyridin-4-yl)-N-[5-(trifluoromethyl)pyrazin-2-yl]-1,6,8-triazatricyclo[7.2.1.0 {2,7}]dodeca-2(7),3,5-triene-8-carboxamide]
- TRP Activity (EC1.5): C (C (EC1.5>25 μM))
- Emax: < 150%

SMILES: O=C1CN2C[C@H]1N(C(=O)Nc1cccc(-c3cnco3)c1)c1nc(-c3cccc(C(F)(F)F)c3)ccc12 [Example 692]
- Tryp AVG EC1.5 (μM) [1]: A (A (EC1.5<1 μM))

SMILES: COc1cc(NC(=O)N2c3nc(-c4cncc(Cl)c4)ccc3N3CCC2CC3)ncn1 [Example 552]
- Tryp AVG EC1.5 (μM) [2]: C (C (EC1.5>25 μM))

SMILES: CCc1cnc(NC(=O)N2c3nc(-c4ccnc(C)c4)ccc3N3CC[C@H]2C3)cn1 [(9S)-N-(5-ethylpyrazin-2-yl)-5-(2-methylpyridin-4-yl)-1,6,8-triazatricyclo[7.2.1.0 {2,7}]dodeca-2(7),3,5-triene-8-carboxamide]
- TRP Activity (EC1.5): A (A (EC1.5<1 μM))
- Emax: > 150%

SMILES: CN(C)c1ccc(-c2ccc3c(n2)N(C(=O)Nc2cnccn2)[C@H]2CCN3C2)cn1 [Example 458]
- Tryp AVG EC1.5 (μM) [2]: B (B (EC1.5 1-25 μM))

SMILES: O=C(Nc1ccccn1)N1c2nc(-c3cncc(Cl)c3)ccc2N2CCC1CC2 [Example 551]
- Tryp AVG EC1.5 (μM) [2]: B (B (EC1.5 1-25 μM))

SMILES: N#Cc1cncc(-c2ccc3c(n2)N(C(=O)Nc2ccccn2)[C@H]2CCN3C2)c1 [Example 373]
- Tryp AVG EC1.5 (μM) [3]: A (A (EC1.5<1 μM))

SMILES: COCC(NC(=O)c1ccc2c(n1)N(C(=O)Nc1ccccn1)[C@H]1CCN2C1)C(F)(F)F (stereo partly drawn) [(9S)-8-N-(pyridin-2-yl)-5-N-(1,1,1-trifluoro-3-methoxypropan-2-yl)-1,6,8-triazatricyclo[7.2.1.0^{2,7}]dodeca-2(7),3,5-triene-5,8-dicarboxamide]
- TRP Activity (EC1.5): A (A (EC1.5<1 μM))
- Emax: > 150%

SMILES: CC(=O)N1CCCN(c2ccc3c(n2)N(C(=O)Nc2ccncn2)[C@H]2CCCN3C2)CC1 [Example 434]
- Tryp AVG EC1.5 (μM) [2]: C (C (EC1.5>25 μM))

SMILES: O=C(Nc1cnccn1)N1c2nc(-c3cccc(N4CCOCC4)c3)ccc2N2CCC[C@H]1C2 [Example 560]
- Tryp AVG EC1.5 (μM) [2]: B (B (EC1.5 1-25 μM))

SMILES: O=C(Nc1ccc(Oc2ccccc2)cc1)N1c2nc(-c3cccc(C(F)(F)F)c3)ccc2N2CC[C@H]1C2 [Example 641]
- Tryp AVG EC1.5 (μM) [1]: C (C (EC1.5>25 μM))

SMILES: Cc1cncc(-c2ccc3c(n2)N(C(=O)Nc2ccccn2)[C@H]2CCCN3C2)c1 [Example 504]
- Tryp AVG EC1.5 (μM) [2]: A (A (EC1.5<1 μM))

SMILES: [N-]=[N+]=NCC(=O)NCc1ccc(NC(=O)N2c3nc(-c4cccc(C(F)(F)F)c4)ccc3N3CC[C@H]2C3)cc1 [Example 799]
- Tryp AVG EC1.5 (μM) [1]: A (A (EC1.5<1 μM))

SMILES: O=C(Nc1ncccn1)N1c2nc(N3CCC[C@H](C(F)(F)F)C3)ccc2N2CCC[C@H]1C2 [(9S)-N-(pyrimidin-2-yl)-5-[(3S)-3-(trifluoromethyl)piperidin-1-yl]-1,6,8-triazatricyclo[7.3.1.0 {2,7}]trideca-2(7),3,5-triene-8-carboxamide]
- TRP Activity (EC1.5): A (A (EC1.5<1 μM))
- Emax: > 150%

SMILES: COc1cc(NC(=O)N2c3nc(-c4cncc(Cl)c4)ccc3N3CCC[C@H]2C3)ncn1 [Example 405]
- Tryp AVG EC1.5 (μM) [3]: A (A (EC1.5<1 μM))

SMILES: O=C(Nc1ccncc1Cl)N1c2nc(-c3cccc(C(F)(F)F)c3)ccc2N2CC[C@H]1C2 [Example 96]
- Tryp AVG EC1.5 (μM) (Trp peptide substrate, concentration giving 150% activation of SIRT1): B (B (EC1.5 1-25 μM))

SMILES: O=C(NC1CCOCC1)c1ccc2c(n1)N(C(=O)Nc1ccccn1)[C@H]1CCN2C1 [(9S)-5-N-(oxan-4-yl)-8-N-(pyridin-2-yl)-1,6,8-triazatricyclo[7.2.1.0 {2,7}]dodeca-2(7),3,5-triene-5,8-dicarboxamide]
- TRP Activity (EC1.5): B (B (EC1.5 1-25 μM))
- Emax: > 150%

SMILES: CCn1cc(-c2ccc3c(n2)N(C(=O)Nc2cnccn2)[C@H]2CCN3C2)cn1 [(9S)-5-(1-ethyl-1H-pyrazol-4-yl)-N-(pyrazin-2-yl)-1,6,8-triazatricyclo[7.2.1.0 {2,7}]dodeca-2(7),3,5-triene-8-carboxamide]
- TRP Activity (EC1.5): B (B (EC1.5 1-25 μM))
- Emax: > 150%

SMILES: CCC(=O)c1cccc(NC(=O)N2c3nc(-c4cccc(C(F)(F)F)c4)ccc3N3CC[C@H]2C3)c1 [Example 714]
- Tryp AVG EC1.5 (μM) [1]: A (A (EC1.5<1 μM))

SMILES: O=C(Nc1ccccn1)N1c2nc(-c3cc(F)cc(C(F)(F)F)c3)ccc2N2CC[C@H]1C2 [Example 333]
- Tryp AVG EC1.5 (μM) [3]: A (A (EC1.5<1 μM))

SMILES: O=C(Nc1cccnn1)N1c2nc(-c3cccc(Cl)c3)ccc2N2C[C@@H](O)[C@H]1C2 [Example 682]
- Tryp AVG EC1.5 (μM) [1]: B (B (EC1.5 1-25 μM))

SMILES: Cc1cncc(-c2ccc3c(n2)N(C(=O)Nc2cccnc2)[C@H]2CCCN3C2)c1 [Example 515]
- Tryp AVG EC1.5 (μM) [2]: A (A (EC1.5<1 μM))

SMILES: CC(C)(C)OC(=O)NCCCc1cc(NC(=O)N2c3nc(-c4cccc(C(F)(F)F)c4)ccc3N3CC[C@H]2C3)cc(-c2cnco2)c1 [Example 759]
- Tryp AVG EC1.5 (μM) [1]: B (B (EC1.5 1-25 μM))

SMILES: O=C(Nc1cnccn1)N1c2nc(-c3cc(F)cc(F)c3)ccc2N2CC[C@H]1C2 [Example 397]
- Tryp AVG EC1.5 (μM) [3]: C (C (EC1.5>25 μM))

SMILES: COc1cc(NC(=O)N2c3nc(-c4cncc(F)c4)ccc3N3CCC2CC3)nc(OC)n1 [Example 578]
- Tryp AVG EC1.5 (μM) [2]: B (B (EC1.5 1-25 μM))

SMILES: O=C(Nc1ccccn1)N1c2nc(-c3cccc(C(F)(F)F)c3F)ccc2N2CC[C@H]1C2 [Example 334]
- Tryp AVG EC1.5 (μM) [3]: B (B (EC1.5 1-25 μM))

SMILES: Cc1cc(-c2ccc3c(n2)N(C(=O)Nc2ccc4c(c2)OCO4)[C@H]2CCN3C2)ccn1 [(9S)-N-(2H-1,3-benzodioxo1-5-yl)-5-(2-methylpyridin-4-yl)-1,6,8-triazatricyclo[7.2.1.0 {2,7}]dodeca-2(7),3,5-triene-8-carboxamide]
- TRP Activity (EC1.5): A (A (EC1.5<1 μM))
- Emax: > 150%

SMILES: CC(C)(C)OC(=O)NCC#Cc1cc(NC(=O)N2c3nc(-c4cccc(C(F)(F)F)c4)ccc3N3CC[C@H]2C3)cc(-c2cnco2)c1 [Example 749]
- Tryp AVG EC1.5 (μM) [1]: A (A (EC1.5<1 μM))

SMILES: O=C(Nc1cnccn1)N1c2nc(-c3ccnc(C4CC4)c3)ccc2N2CC[C@H]1C2 [(9S)-5-(2-cyclopropylpyridin-4-yl)-N-(pyrazin-2-yl)-1,6,8-triazatricyclo[7.2.1.0 {2,7}]dodeca-2,4,6-triene-8-carboxamide]
- TRP Activity (EC1.5): A (A (EC1.5<1 μM))
- Emax: > 150%

SMILES: Cc1cc(-c2ccc3c(n2)N(C(=O)Nc2cnccn2)[C@H]2CCN3C2)cnn1
- TRP Activity (EC1.5): B (B (EC1.5 1-25 μM))
- Emax: > 150%

SMILES: CCOc1ncc(-c2ccc3c(n2)N(C(=O)Nc2cnccn2)[C@H]2CCN3C2)cc1C#N [(9S)-5-(5-cyano-6-ethoxypyridin-3-yl)-N-(pyrazin-2-yl)-1,6,8-triazatricyclo[7.2.1.0^{2,7}]dodeca-2(7),3,5-triene-8-carboxamide]
- TRP Activity (EC1.5): C (C (EC1.5>25 μM))
- Emax: < 150%

SMILES: Cc1cc(-c2ccc3c(n2)N(C(=O)NCCc2cccnc2)[C@H]2CCN3C2)ccn1 [(9S)-5-(2-methylpyridin-4-yl)-N-[2-(pyridin-3-yl)ethyl]-1,6,8-triazatricyclo[7.2.1.0 {2,7}]dodeca-2(7),3,5-triene-8-carboxamide hydrochloride]
- TRP Activity (EC1.5): C (C (EC1.5>25 μM))
- Emax: < 150%
